The source of these data is US20240131499A1, “BIOMIMETIC CATALYSTS FOR DIVERSE INDUSTRIAL APPLICATIONS IN CHEMICAL REACTIONS” (Wisconsin Alumni Research Foundation, priority 2022, published 2024).

The structures appear in SMILES notation. Values joined by “and” are separate entries in the source; they are usually repeats but may differ in a detail not shown here. Equal entries are not always repeated.

Series [1] in a line: Solubility of the organocatalyst in water. The class given is physicochemical. Conditions: in water at 100° C.; read-out: solubility limit. From the text: Immobilization of the organocatalyst on a solid support material can prevent catalyst precipitation by distributing the organocatalyst on the surface of the support. […] Catalytic reaction over the immobilized organocatalyst is analogous to the mechanism of enzymatic reactions. For instance, an organocatalyst complex on a well-defined support with controlled surface properties can act in an analogous fashion as an active site in the channel of an enzyme. Reactants bind on the G1H sites by the interaction between surface functionality on the support and the organocatalyst. Lower loading of catalyst on a support enhances the catalytic activity (FIGS. 16A and 1D) by forming a more uniform distribution of the complex on the support.

Series [2] is described as follows: Active site analysis: rate constants for the active sites in lactose hydrolysis. To be noted: 100° C.; for rate constant for the active site G1H (kG1H): homogeneous catalyst. On the procedure: Addition of Ca(OAc)2 for the investigation of catalytic active sites: The rate constants for H^+ and non-dissociated carboxylic acid from the acid catalysts were determined by combining results from separate reaction kinetics experiments. […] In the presence of different amounts of Ca(OAc)2, the predicted rates can be calculated by using a linear combination of the rate constants and the concentrations of corresponding active sites (equation in FIG. 1C). […] The kG1H value for each biomimetic catalyst was then used to calculate the turnover frequency (TOF=kG1H·[Lactose]0) for comparison of catalytic activities from the engineered biomimetic catalysts in FIG. 2A. […] This analysis accounts for the contributions from the catalytic activity of H^+ (pH effect) and the catalytic activity of the active site (G1H).

The nature of series [3]: Reaction kinetics analysis for lactose hydrolysis. To be noted: 100° C. The procedure: The glass vial was capped to prevent the solvent from evaporation, and the hydrolysis reaction was carried out at 100° C. in an oil bath (120 and 90° C. were used to measure activation energies) with 600-800 rpm stirring. […] 0.105 g (=0.1 mL) of liquid sample solution was collected at each day (every 18-26 h) for 5 days and diluted in 0.399 g (=0.4 mL) of MQ water for the reaction kinetics analysis, and the diluted sample was filtered by syringe filter (20 μm pore) and analyzed by HPLC.
(§1) The chemical concentrations of hydrolyzed lactose solutions were quantified by high performance liquid chromatography (HPLC) analysis. The hydrolyzed solutions with immobilized catalysts were centrifuged (2500 rpm, 20 min) to separate the immobilized catalyst in the aqueous phase solution. 0.105 g (0.1 mL) of the aqueous solution was diluted in 0.399 g (0.4 mL) of Milli-Q water (5 times dilution by volume) to analyze the concentrations of lactose, glucose, galactose, and HMF as one of by-products by glucose degradation. […] The temperature of the HPLC column was maintained at 50° C., and the flow rate of the mobile phase (pH 2 water, acidified by sulfuric acid) was 0.6 mL/min.

For series [4] the following is noted: at 100° C.; extrapolated; cited from earlier work.
The nature of series [5]: Lactose hydrolysis in the presence of Ca(OAc)2. To be noted: 100° C. The procedure:
The glass vial was capped to prevent the solvent from evaporation, and reaction was carried out at 100° C. in an oil bath with 800 rpm stirring. 0.105 g (0.1 mL) of liquid sample solution was collected each day (every 18-26 h) for 5 days and diluted in 0.399 g (0.4 mL) of MQ water for the reaction kinetics analysis. The diluted sample was analyzed by HPLC. Experimentally measured rates at different concentrations of Ca(OAc)2 were analyzed by the kinetic model (Equations 1-4).
as §1

Where [6] appears, read: homogeneous (non-immobilized) catalyst, amino acids 82-84 mM, 95% confidential intervals.

As usually defined, the solubility is how much of the substance goes into solution per volume.

Turning to `O=C(O)CCC(C(=O)O)N1C(=O)C2C(C1=O)C1(CCC(=O)CCC34CCC(CO)(O3)C3C(=O)N(C(CCC(=O)O)C(=O)O)C(=O)C34)CCC2(CO)O1` (centres unmarked) [PHAH-GA-MAL-H], the solubility in series [1] is ~37000 µM and ~27000 µg/mL. Besides, in series [2], the “higher kG1H than GA-MAL-H” value stood at 74.2%, the “kG1H relative to glutamic acid” value amounted to 2.3 times and the “rate constant for the active site G1H (kG1H)” value (“rate constant … (kG1H)” for short) amounted to 0.000681 M⁻¹ s⁻¹. In series [3] (37 mM homogeneous catalyst), the “kapp, apparent rate constant for lactose hydrolysis” value (shortened to “kapp, apparent rate constant”) came to 0.0117 ± 0.0004 h⁻¹ and the “kd,app, apparent rate constant for glucose degradation” value (“kd,app, apparent rate constant” below) came to 4.44e-07 ± 1.4e-07 s⁻¹. Moreover, in series [3] (70 mM homogeneous catalyst), the “kapp, apparent rate constant” value was 0.0103±0.0004 h^− and the “kd,app, apparent rate constant” value was found to be 2.78e-07 ± 1.7e-07 s⁻¹. In series [3] (setting [6]), the “kapp, apparent rate constant” value was determined as 0.0117 ± 0.0004 h⁻¹ and the “kd,app, apparent rate constant” value was determined as 4.44e-07 ± 1.4e-07 s⁻¹.
For the molecule `O=S(=O)(O)O` [sulfuric acid], in series [3] (setting [6]), the “kapp, apparent rate constant” value was 0.1615 ± 0.0075 h⁻¹ and the “kd,app, apparent rate constant” value stood at 1.08e-06 ± 5.42e-06 s⁻¹.
As to `N[C@@H](CCC(=O)O)C(=O)O` [glutamic acid, L-glutamic acid], the “pKa,G1H (α-carboxylic acid)” value in series [4] is 2.24. Further, the “pKa,G2H (side-chain carboxylic acid)” value in series [4] is 4.55. The “pKa,GNH (amine)” value in series [4] is recorded as 9.12. The “rate constant … (kG1H)” value in series [2] was 0.00029567 M⁻¹ s⁻¹ and 0.000294 M⁻¹ s⁻¹. Besides, the “Rate of lactose hydrolysis” value amounted to 0.0005 M/h in series [5] ([Ca(OAc)2] 24 mM), 0.0026 M/h in series [5] ([Ca(OAc)2]=0 mM), 0.0016 M/h in series [5] ([Ca(OAc)2]=5 mM) and 0.0007 M/h in series [5] ([Ca(OAc)2]=16 mM). Further, the “kapp, apparent rate constant” value in series [5] ([Ca(OAc)2] 24 mM) is 0.0011 ± 0.0001 h⁻¹; in series [5] ([Ca(OAc)2]=0 mM) it was 0.0060 ± 0.0004 h⁻¹; in series [5] ([Ca(OAc)2]=5 mM) it was 0.0037 ± 0.0002 h⁻¹; in series [5] ([Ca(OAc)2]=16 mM), 0.0016 ± 0.0001 h⁻¹; in series [3] (setting [6]) it was 0.0060 ± 0.0004 h⁻¹.
`[H+]` [H^+]: in series [2] (kapp=kH+·[H^+]), the “rate constant for H^+ (kH+)” value stood at 0.0002639 M⁻¹ s⁻¹.
With `O=C(O)CCC(C(=O)O)N1C(=O)CCC1=O` (centres unmarked) [GA-MAL-H], in series [2], the “higher kG1H than kG1H for glutamic acid” value turned out to be 31.9% and the “rate constant … (kG1H)” value was determined as 0.000389 M⁻¹ s⁻¹. Also, in series [3], the “suppression of kd,app/kapp compared to glutamic acid” value was found to be 55.2%. Moreover, in series [3] (setting [6]), the “kapp, apparent rate constant” value was 0.0077 ± 0.0002 h⁻¹ and the “kd,app, apparent rate constant” value stood at 6.11e-07 ± 2.2e-07 s⁻¹.
Regarding `N[C@@H](Cc1ccc(O)cc1)C(=O)O` [tyrosine, L-tyrosine], in series [3] (setting [6]), the “kapp, apparent rate constant” value was determined as 0.0004 ± 0.0001 h⁻¹ and the “kd,app, apparent rate constant” value came to 1.4e-07 ± 3.22e-06 s⁻¹.
With `CC(=O)O` [acetic acid], in series [2] (kapp=kH+·[H^+]+kAA·[AA]), the “rate constant for the non-dissociated acetic acid (kAA)” value worked out at 1.42e-06 M⁻¹ s⁻¹. For the same molecule, the “kapp, apparent rate constant” value in series [3] (setting [6]) came out at 0.0015 ± 0.0001 h⁻¹.
